From patent US11583494B2, “Pharmaceutical composition for nasal administration” (MEDILABO RFP, INC., priority 2017, dated 2023) come the findings set out here.

For one data set, the system named is APP OSK mouse. Nature of the data set: Behavior test: space reference memory of mouse, Morris water maze. In kind it is in vivo. The conditions noted are these: 1 month. As to the method:
(§1) Male APP OSK mice (Tomiyama et al. J Neurosci. 2010; 30:4845-56) aged 11 months were prepared. APP OSK mice weigh about 30 g. The 60 APP OSK mice were classified into five groups A to E, each containing 12 mice. Separately, 12 wild-type mice (non-Tg littermate) of the same age in month were prepared.
(§2) Administration was performed without anesthesia using a rodent oral sonte for oral administration, a Pipetman (white tip) for nasal administration, and an injection syringe for subcutaneous administration.
The behavior test was performed by measuring space reference memory of mouse using a Morris water maze according to the method of Umeda et al. Brain 2016; 139:1568-86.

The nature of data set [1]: Impaired liver function: hepatic enzymes AST (GOT) and ALT (GPT) in serum. In kind it is in vivo, mouse. The conditions noted are these: 1 month. As to the method: as §1, §2
Blood was sampled from mice after end of the behavior test, and serum was separated from the blood to prepare a serum sample. Hepatic enzymes AST (GOT) and ALT (GPT) in the serum sample were measured, and the degree of impaired liver function by rifampicin was compared.

Another data set deals with T1, Aβ oligomers (Homo sapiens, UniProt P05067, DEL693-693).
T1 construct: from tissue; host or cells: brain (hippocampus) of APP OSK transgenic mice
It counts as in vivo, mouse. As to the method: as §1, §2
According to the procedure described in Umeda et al. Brain 2016; 139:1568-86, Aβ oligomers (Aβ oligomers are considered to cause phosphorylation of tau and reduction in synaptophysin), synaptophysin (marker protein of synapse), and phosphorylated tau were stained by immunohistological staining. For staining Aβ oligomers, 11A1 antibody (available from Immune-Biological laboratories Co., Ltd.) was used, and for staining synaptophysin, SVP-38 antibody (available from Sigma) was used. Mouse monoclonal PHF-1 antibody (anti p-Ser396/404-tau antibody, provided by Dr. Peter Davies, Albert Einstein College of Medicine) was used for staining phosphorylated tau. After staining, Aβ oligomers, synaptophysin, and phosphorylated tau were quantified by using NIH image-J.

The target in a further data set is T2, Aβ (Homo sapiens, UniProt P05067).
T2 construct: Rifampicins have the action of suppressing formation of oligomers of amyloid β, tau, and α synuclein
The data set can be described thus: Formation of oligomers in vitro, Aβ. It counts as biochemical.

For the next data set, the system named is tau. The data set can be described thus: Formation of oligomers in vitro, tau. In kind it is biochemical.
The target of the next data set is α synuclein (Homo sapiens, UniProt P37840). The data set can be described thus: Formation of oligomers in vitro, α synuclein. In kind it is biochemical.
The test system of the next data set is AD model mouse. Nature of the data set: Oral administration to AD model mouse in which Aβ accumulates. It counts as in vivo.
In the next data set the test system is FTD model mouse. The data set can be described thus: Oral administration to FTD model mouse in which tau accumulates. It counts as in vivo.

Consider `CO[C@H]1/C=C/O[C@@]2(C)Oc3c(C)c(O)c4c(O)c(c(/C=N/N5CCN(C)CC5)c(O)c4c3C2=O)NC(=O)/C(C)=C\C=C\[C@H](C)[C@H](O)[C@@H](C)[C@@H](O)[C@@H](C)[C@H](OC(C)=O)[C@@H]1C` [Rifampicin, 3-(4-methylpiperazinyliminomethyl)rifamycin SV], for which the “Ameliorating effect on disturbance of memory (FIG. 1)” value in the data set with APP OSK mouse (Example 2: nasal, 0.05 mg/day) is listed as “reached to the same level as in wild-type mouse”. The “Ameliorating effect on disturbance of memory compared with oral administration (Comparative Example 1, […])” value with APP OSK mouse (Example 2: nasal, dosage one-fifth (0.05 mg/day)) was “higher than the case of oral administration”. Also, the “Amelioration of disturbance of memory (FIG. 1)” value with APP OSK mouse (any of oral, nasal and subcutaneous administration, APP OSK mice) is “amelioration of disturbance of memory of APP OSK mouse was confirmed”. Moreover, the “Elevation of AST in comparison with CMC-administered APP OSK mouse” value in data set [1] (Example 2: nasal, 0.05 mg/day) is on record as “Slight elevation”. Further, the “Change of ALT” value in data set [1] (any administration method (oral, nasal, subcutaneous)) was “no significant change was observed”. Besides, the “Effect of reducing Aβ oligomers in comparison for the same dosage (FIG. 3)” value at Aβ oligomers (Example 1: nasal, […], versus oral and subcutaneous […]) is “highest”. For the same molecule, the “Quantification of Aβ oligomers (FIG. 3)” value on Aβ oligomers (any of oral (Comparative Example 1), nasal (Example 1, Example 2), subcutaneous (Reference Example 3)) is on record as “reduced to at least the same level as that in wild-type mouse”. The “Formation of oligomers of Aβ” value at Aβ is “suppresses formation of oligomers”. Moreover, in the data set on tau, the “Formation of oligomers of tau” value is reported as “suppresses formation of oligomers”. Besides, the “Formation of oligomers of α synuclein” value on α synuclein was “suppresses formation of oligomers”. In addition, the “Cognitive function of mouse” value with AD model mouse and with FTD model mouse was “recovery of the cognitive function” each time.
